Experimental findings from patent US10034886B2, “GLP-1 receptor modulators” (Celgene International II SÀRL, priority 2014, dated 2018) are described below.

Where only a bound is given, the exact number is not on record here.

The target in the assay is T1, GLP-1R (Homo sapiens, UniProt P43220).
T1 construct: host or cells: GLP-1R CRE-bla CHO-K1 cells
T1 sequence (P43220 24-463): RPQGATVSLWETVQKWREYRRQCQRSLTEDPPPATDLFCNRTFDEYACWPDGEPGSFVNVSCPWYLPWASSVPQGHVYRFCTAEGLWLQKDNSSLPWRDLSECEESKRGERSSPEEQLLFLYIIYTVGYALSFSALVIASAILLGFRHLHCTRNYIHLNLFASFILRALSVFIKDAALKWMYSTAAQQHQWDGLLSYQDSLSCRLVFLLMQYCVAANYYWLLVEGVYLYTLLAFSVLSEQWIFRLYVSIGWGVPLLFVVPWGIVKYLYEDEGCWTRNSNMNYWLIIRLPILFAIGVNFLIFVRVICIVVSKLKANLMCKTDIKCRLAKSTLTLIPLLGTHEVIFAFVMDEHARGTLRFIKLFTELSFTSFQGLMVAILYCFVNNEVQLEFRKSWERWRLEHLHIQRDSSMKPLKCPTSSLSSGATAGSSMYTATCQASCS
T1 sequence (P01275 100-127 partner limits assumed): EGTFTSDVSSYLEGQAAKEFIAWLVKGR
In words: EC20 GLP-1(9-36) PAM cAMP assay: dose response of compound in the presence of fixed concentration of GLP-1(9-36). The settings on record: GLP-1R CRE-bla CHO-K1 cells, compound dose response with fixed concentration of GLP-1(9-36), read-out: EC20 GLP-1(9-36) PAM EC50. In kind it is cell-based. The method in brief:
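Positive allosteric modulation read as cAMP accumulation: compound titrations (12 points) combined with an EC20 level of GLP-1(9-36) on CHO-K1 GLP-1R CRE-bla cells, IBMX present, 30 min, 37 °C, pH 7.4 buffer. Luminescence converted to cAMP via standards; non-linear fit gave EC50 and Emax.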
The term EC50 denotes the concentration giving half of the maximal effect. Regarding `CC(C)CCCOc1ccc(-c2cnc(-c3ccc(C[C@H](NC(=O)c4ccc(OC(C)C)cc4)C(=O)N4CC(C(=O)O)C4)cc3)nc2)cc1` [Compound 1238], the EC50 lay in the range of 800 to 2500 nM.

Turning to `COc1cc(C(=O)N[C@@H](Cc2ccc(-c3ncc(-c4ccc(OCCCC(C)C)cc4)cn3)cc2)C(=O)N2CC(C(=O)O)C2)ccc1C(C)(C)C` [Compound 1239], the EC50 was 800 to 2500 nM.

Turning to `CCCc1ccc(C(=O)N[C@@H](Cc2ccc(-c3ncc(-c4ccc(OCCCC(C)C)cc4)cn3)cc2)C(=O)N2CC(C(=O)O)C2)s1` [Compound 1240], the EC50 is 800 to 2500 nM.

With `CCc1ccc(C(=O)N[C@@H](Cc2ccc(-c3ncc(-c4ccc(OCCCC(C)C)cc4)cn3)cc2)C(=O)N2CC(C(=O)O)C2)s1` [Compound 1241], the EC50 is 800 to 2500 nM.

For the compound `CC(C)CCCOc1ccc(-c2cnc(-c3ccc(C[C@H](NC(=O)c4ccn(C(C)(C)C)c4)C(=O)N4CC(C(=O)O)C4)cc3)nc2)cc1` [Compound 1242], the EC50 was 800 to 2500 nM.

On to `CCCCOc1ccc(C(=O)N[C@@H](Cc2ccc(-c3ncc(-c4ccc(OCCCC(C)C)cc4)cn3)cc2)C(=O)N2CC(C(=O)O)C2)cc1` [Compound 1243], for which the EC50 was in the range of 800 to 2500 nM.

As to `CC(C)CCCOc1ccc(-c2cnc(-c3ccc(C[C@H](NC(=O)Cc4csc(C(C)(C)C)n4)C(=O)N4CC(C(=O)O)C4)cc3)nc2)cc1` [Compound 1244], the EC50 was in the range of 2500 to 5000 nM.

On to `CCc1ccc(C(=O)N[C@@H](Cc2ccc(-c3ncc(-c4ccc(OCCCC(C)C)cc4)cn3)cc2)C(=O)N2CC(C(=O)O)C2)nc1` [Compound 1245], for which the concentration for a half-maximal effect (EC50) was in the range of 2500 to 5000 nM.

Take `CC(C)CCCOc1ccc(-c2cnc(-c3ccc(C[C@H](NC(=O)c4ccc(S(C)(=O)=O)s4)C(=O)N4CC(C(=O)O)C4)cc3)nc2)cc1` [Compound 1246]: the EC50 is below 800 nM.

Regarding `C[C@@H](NC(=O)[C@H](Cc1ccc(-c2ncc(/C=C/CCCc3ccccc3)cn2)cc1)NC(=O)c1ccc(C(C)(C)C)s1)C(=O)O` [Compound 1247], the EC50 lay within 800 to 2500 nM.

For `C[C@@H](NC(=O)[C@H](Cc1ccc(-c2ncc(/C=C/c3cccc(F)c3)cn2)cc1)NC(=O)c1ccc(C(C)(C)C)s1)C(=O)O` [Compound 1248], the EC50 lay in the range of 5000 to 10000 nM.

In the case of `C[C@@H](NC(=O)[C@H](Cc1ccc(-c2ncc(/C=C/c3ccc(F)cc3)cn2)cc1)NC(=O)c1ccc(C(C)(C)C)s1)C(=O)O` [Compound 1249], the EC50 fell in the range of 2500 to 5000 nM.

For `C[C@@H](NC(=O)[C@H](Cc1ccc(-c2ncc(/C=C/c3ccc(Cl)cc3)cn2)cc1)NC(=O)c1ccc(C(C)(C)C)s1)C(=O)O` [Compound 1250], the EC50 lay within 800 to 2500 nM.

In the case of `C[C@@H](NC(=O)[C@H](Cc1ccc(-c2ncc(/C=C/c3cccc(C(F)(F)F)c3)cn2)cc1)NC(=O)c1ccc(C(C)(C)C)s1)C(=O)O` [Compound 1251], the EC50 was 5000 to 10000 nM.

As to `C[C@@H](NC(=O)[C@H](Cc1ccc(-c2ncc(/C=C/c3ccc(C(F)(F)F)cc3)cn2)cc1)NC(=O)c1ccc(C(C)(C)C)s1)C(=O)O` [Compound 1252], the EC50 is 800 to 2500 nM.

Turning to `C[C@@H](NC(=O)[C@H](Cc1ccc(-c2ncc(/C=C/CCCCc3ccccc3)cn2)cc1)NC(=O)c1ccc(C(C)(C)C)s1)C(=O)O` [Compound 1253], the EC50 is below 800 nM.

Turning to `Cc1cccc(/C=C/c2cnc(-c3ccc(C[C@H](NC(=O)c4ccc(C(C)(C)C)s4)C(=O)N[C@H](C)C(=O)O)cc3)nc2)c1` [Compound 1254], the EC50 fell in the range of 800 to 2500 nM.

Turning to `C[C@@H](NC(=O)[C@H](Cc1ccc(-c2ncc(/C=C/c3ccc(F)cc3F)cn2)cc1)NC(=O)c1ccc(C(C)(C)C)s1)C(=O)O` [Compound 1255], the EC50 is 2500 to 5000 nM.

With `C[C@@H](NC(=O)[C@H](Cc1ccc(-c2ncc(/C=C/c3cc(F)cc(F)c3)cn2)cc1)NC(=O)c1ccc(C(C)(C)C)s1)C(=O)O` [Compound 1256], the half-maximal effective concentration (EC50) fell in the range of 5000 to 10000 nM.

Consider `C[C@@H](NC(=O)[C@H](Cc1ccc(-c2ncc(/C=C/c3ccsc3)cn2)cc1)NC(=O)c1ccc(C(C)(C)C)s1)C(=O)O` [Compound 1257], for which the EC50 lay within 2500 to 5000 nM.

Regarding `CCOc1ccc(/C=C/c2cnc(-c3ccc(C[C@H](NC(=O)c4ccc(C(C)(C)C)s4)C(=O)N[C@H](C)C(=O)O)cc3)nc2)cc1` [Compound 1258], the EC50 is 800 to 2500 nM.

Consider `COc1cc(/C=C/c2cnc(-c3ccc(C[C@H](NC(=O)c4ccc(C(C)(C)C)s4)C(=O)N[C@H](C)C(=O)O)cc3)nc2)cc(OC)c1` [Compound 1259], for which the concentration for a half-maximal effect (EC50) lay in the range of 5000 to 10000 nM.

Consider `C[C@@H](NC(=O)[C@H](Cc1ccc(-c2ncc(/C=C/c3ccccc3C(F)(F)F)cn2)cc1)NC(=O)c1ccc(C(C)(C)C)s1)C(=O)O` [Compound 1260], for which the EC50 is 800 to 2500 nM.

As for `C[C@@H](NC(=O)[C@H](Cc1ccc(-c2ncc(/C=C/c3cc(C(F)(F)F)cc(C(F)(F)F)c3)cn2)cc1)NC(=O)c1ccc(C(C)(C)C)s1)C(=O)O` [Compound 1261], the EC50 lay in the range of 800 to 2500 nM.

Turning to `CCCCc1ccc(/C=C/c2cnc(-c3ccc(C[C@H](NC(=O)c4ccc(C(C)(C)C)s4)C(=O)N[C@H](C)C(=O)O)cc3)nc2)cc1` [Compound 1262], the EC50 was in the range of 800 to 2500 nM.

For `COc1cccc(/C=C/c2cnc(-c3ccc(C[C@H](NC(=O)c4ccc(C(C)(C)C)s4)C(=O)N[C@H](C)C(=O)O)cc3)nc2)c1` [Compound 1263], the EC50 was 2500 to 5000 nM.

Consider `Cc1ccc(/C=C/c2cnc(-c3ccc(C[C@H](NC(=O)c4ccc(C(C)(C)C)s4)C(=O)N[C@H](C)C(=O)O)cc3)nc2)cc1` [Compound 1264], for which the EC50 lay in the range of 800 to 2500 nM.

As for `CCC[C@H]1CC[C@H](c2ccc(-c3cnc(-c4ccc(C[C@H](NC(=O)c5ccc(C(C)(C)C)s5)C(=O)N[C@H](C)C(=O)O)cc4)nc3)cc2)CC1` [Compound 1265], the concentration for a half-maximal effect (EC50) was below 800 nM.

As to `CCc1ccc(/C(C)=C/c2cnc(-c3ccc(C[C@H](NC(=O)c4ccc(C(C)(C)C)s4)C(=O)N[C@H](C)C(=O)O)cc3)nc2)cc1` [Compound 1266], the EC50 lay in the range of 2500 to 5000 nM.

Take `C[C@@H](NC(=O)[C@H](Cc1ccc(-c2ncc(N3CCN(CC4CCCCC4)C3=O)cn2)cc1)NC(=O)c1ccc(C(C)(C)C)s1)C(=O)O` [Compound 1267]: the EC50 was 5000 to 10000 nM.

With `C[C@@H](NC(=O)[C@H](Cc1ccc(-c2ncc(N3CCN(c4ccc(C(C)(C)C)cc4)C3=O)cn2)cc1)NC(=O)c1ccc(C(C)(C)C)s1)C(=O)O` [Compound 1268], the EC50 is below 800 nM.

Take `CC[C@H]1CC[C@H](c2ccc(-c3cnc(-c4ccc(C[C@@H](NC(=O)c5ccc(C(C)(C)C)s5)C(=O)N[C@H](C)C(=O)O)cc4)nc3)cc2)CC1` [Compound 1269]: the EC50 lay in the range of 5000 to 10000 nM.

Take `CC[C@H]1CC[C@H](c2ccc(-c3cnc(-c4ccc(C[C@@H](NC(=O)c5ccc(C(C)(C)C)s5)C(=O)N[C@@H](C)C(=O)O)cc4)nc3)cc2)CC1` [Compound 1270]: the EC50 is 800 to 2500 nM.

As to `CCCCCCCOc1ccc(-c2cnc(-c3ccc(C[C@@H](NC(=O)c4ccc(C(C)(C)C)s4)C(=O)N4CC(C(=O)O)C4)cc3)nc2)cc1` [Compound 1271], the EC50 fell in the range of 800 to 2500 nM.

Regarding `C[C@@H](NC(=O)[C@H](Cc1ccc(-c2ncc(OCc3ccc(C(F)(F)F)cc3)cn2)cc1)NC(=O)c1ccc(C(C)(C)C)s1)C(=O)O` [Compound 1272], the EC50 is 5000 to 10000 nM.

As to `CCCCCCOC1CN(c2cnc(-c3ccc(C[C@H](NC(=O)c4ccc(C(C)(C)C)s4)C(=O)N[C@H](C)C(=O)O)cc3)nc2)C1` [Compound 1273], the concentration for a half-maximal effect (EC50) lay within 5000 to 10000 nM.

Take `CCc1ccc(CCc2cnc(-c3ccc(C[C@H](NC(=O)c4ccc(C(C)(C)C)s4)C(=O)N[C@H](C)C(=O)O)cc3)nc2)cc1` [Compound 1274]: the EC50 was 2500 to 5000 nM.

Turning to `C[C@@H](NC(=O)[C@H](Cc1ccc(-c2ncc(C#Cc3ccc(F)cc3)cn2)cc1)NC(=O)c1ccc(C(C)(C)C)s1)C(=O)O` [Compound 1275], the EC50 lay in the range of 800 to 2500 nM.

Turning to `CCc1ccc(C#Cc2cnc(-c3ccc(C[C@H](NC(=O)c4ccc(C(C)(C)C)s4)C(=O)N[C@H](C)C(=O)O)cc3)nc2)cc1` [Compound 1276], the EC50 was 800 to 2500 nM.

Turning to `CCc1ccc(/C=C\c2cnc(-c3ccc(C[C@H](NC(=O)c4ccc(C(C)(C)C)s4)C(=O)N[C@H](C)C(=O)O)cc3)nc2)cc1` [Compound 1277], the EC50 fell in the range of 800 to 2500 nM.

For `CC[C@H]1CC[C@H](c2ccc(-c3cnc(-c4ccc(C[C@H](NC(=O)c5ccc(S(C)(=O)=O)s5)C(=O)N5CC(C(=O)O)C5)cc4)nc3)cc2)CC1` [Compound 1278], the EC50 is below 800 nM.

Turning to `CC[C@H]1CC[C@H](c2ccc(-c3cnc(-c4ccc(C[C@H](NC(=O)Cc5ccc(C(C)(C)C)s5)C(=O)N5CC(C(=O)O)C5)cc4)nc3)cc2)CC1` [Compound 1279], the EC50 was 2500 to 5000 nM.

Take `CCCCCCCOc1ccc(-c2cnc(-c3ccc(C[C@H](NC(=O)c4ccc(C(C)(C)C)s4)C(=O)N4CC(CN)(C(=O)O)C4)cc3)nc2)cc1` [Compound 1280]: the EC50 was below 800 nM.

As for `CCCCCCCOc1ccc(-c2cnc(-c3ccc(C[C@H](NC(=O)c4ccc(C(C)(C)C)s4)C(=O)N[C@H]4C[C@H](N)C4)cc3)nc2)cc1` [Compound 1281], the EC50 was 2500 to 5000 nM.

In the case of `C[C@@H](NC(=O)[C@H](Cc1ccc(-c2ncc(-c3ccc(C4CCCCC4)cc3)cn2)cc1)NC(=O)c1ccc(C(C)(C)C)s1)C(=O)O` [Compound 1282], the EC50 is below 800 nM.

On to `Cc1ccc(-c2ccc(-c3cnc(-c4ccc(C[C@H](NC(=O)c5ccc(C(C)(C)C)s5)C(=O)N[C@H](C)C(=O)O)cc4)nc3)cc2)cc1` [Compound 1283], for which the EC50 is below 800 nM.

Regarding `C[C@@H](NC(=O)[C@H](Cc1ccc(-c2ncc(-c3cccc(N4CCCCC4)c3)cn2)cc1)NC(=O)c1ccc(C(C)(C)C)s1)C(=O)O` [Compound 1284], the EC50 fell in the range of 800 to 2500 nM.

For the compound `Cc1cccc(-c2ccc(-c3cnc(-c4ccc(C[C@H](NC(=O)c5ccc(C(C)(C)C)s5)C(=O)N[C@H](C)C(=O)O)cc4)nc3)cc2)c1` [Compound 1285], the EC50 was below 800 nM.

On to `CCc1ccc(-c2ccc(-c3cnc(-c4ccc(C[C@H](NC(=O)c5ccc(C(C)(C)C)s5)C(=O)N[C@H](C)C(=O)O)cc4)nc3)cc2)cc1` [Compound 1286], for which the EC50 was below 800 nM.
